According to patent publication US10745382B2 (BRISTOL-MYERS SQUIBB COMPANY, priority 2015, dated 2020):
Read-outs that look alike come from different tables or passages of the source.

Biological target: T1, PD-1/PD-L1 (Homo sapiens, UniProt Q9NZQ7)
T1 construct: made in house; host or cells: HEK293T
Experiment: PD-1/PD-L1 Homogenous Time-Resolved Fluorescence (HTRF) binding assay
Settings: PD-L1-His 10 nM, PD-1-Ig 20 nM, read-out: Range or IC50
How it was run: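 dPBS + 0.1% BSA + 0.05% Tween-20 buffer; Eu-cryptate anti-Ig 1 nM final, APC anti-His 20 nM final; HTRF read. Counter-assays: PD-1-Ig/PD-L2-His 20 & 5 nM, CD80-His/PD-L1-Ig 100 & 10 nM.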

T1 sequence (Q9NZQ7 with tags, fused parts or gaps): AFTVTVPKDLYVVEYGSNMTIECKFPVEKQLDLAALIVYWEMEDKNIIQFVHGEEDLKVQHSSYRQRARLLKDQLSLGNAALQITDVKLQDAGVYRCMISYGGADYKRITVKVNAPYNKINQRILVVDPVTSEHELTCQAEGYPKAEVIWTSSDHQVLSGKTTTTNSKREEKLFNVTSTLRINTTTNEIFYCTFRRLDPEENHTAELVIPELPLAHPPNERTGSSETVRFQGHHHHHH

Work on `Cc1c(COc2cc(OCc3cncc(C#N)c3)c(CN3CCCC[C@H]3C(=O)O)cc2Cl)cccc1-c1cccc(OCCCNC23CC4CC(CC(C4)C2)C3)c1C` [Example 2227, (S)-1-(4-((3′-(3-((3s,5s,7s)-adamantan-1-ylamino)propoxy)-2,2′-dimethyl-[1,1′-biphenyl]-3-yl)methoxy)-5-chloro-2-((5-cyanopyridin-3-yl)methoxy)benzyl)piperidine-2-carboxylic Acid] yielded an IC50 (value given as range class) of 0.00021 to 0.01 µM.

For `Cc1c(COc2cc(OCc3cncc(C#N)c3)c(CN3CCCC[C@H]3C(=O)O)cc2Cl)cccc1-c1cccc(OCCCN(C)Cc2ccccn2)c1C` [Example 2228, (2S)-1-(5-chloro-2-((5-cyanopyridin-3-yl)methoxy)-4-((2,2′-dimethyl-3′-(3-(methyl(pyridin-2-ylmethyl)amino)propoxy)biphenyl-3-yl)methoxy)benzyl)piperidine-2-carboxylic Acid], the IC50 (value given as range class) was 0.01 to 0.1 µM.

For `COC(=O)[C@H]1CC[C@H](NCCCOc2cccc(-c3cccc(COc4cc(OCc5cncc(C#N)c5)c(CN5CCCC[C@H]5C(=O)O)cc4Cl)c3C)c2C)CC1` [Example 2229, (2S)-1-(5-chloro-2-((5-cyanopyridin-3-yl)methoxy)-4-((3′-(3-((1r,4r)-4-(methoxycarbonyl)cyclohexylamino)propoxy)-2,2′-dimethylbiphenyl-3-yl)methoxy)benzyl)piperidine-2-carboxylic Acid], the IC50 (value given as range class) was 0.00021 to 0.01 µM.

With `Cc1c(COc2cc(OCc3cncc(C#N)c3)c(CN3CCCC[C@H]3C(=O)O)cc2Cl)cccc1-c1cccc(OCCCN[C@@H](CO)c2ccccc2)c1C` [Example 2230, (2S)-1-(5-chloro-2-((5-cyanopyridin-3-yl)methoxy)-4-((3′-(3-((R)-2-hydroxy-1-phenylethylamino)propoxy)-2,2′-dimethylbiphenyl-3-yl)methoxy)benzyl)piperidine-2-carboxylic Acid] the IC50 (value given as range class) was 0.00021 to 0.01 µM.

Compound `Cc1c(COc2cc(OCc3cncc(C#N)c3)c(CN3CCCC[C@H]3C(=O)O)cc2Cl)cccc1-c1cccc(OCCCNCCc2ncn(C)c2Cl)c1C` [Example 2231, (2S)-1-(5-chloro-4-((3′-(3-(2-(5-chloro-1-methyl-1H-imidazol-4-yl)ethylamino)propoxy)-2,2′-dimethylbiphenyl-3-yl)methoxy)-2-((5-cyanopyridin-3-yl)methoxy)benzyl)piperidine-2-carboxylic Acid] has an IC50 (numeric IC50) of 0.012 µM.

`Cc1c(COc2cc(OCc3cncc(C#N)c3)c(CN3CCCC[C@H]3C(=O)O)cc2Cl)cccc1-c1cccc(OCCCN2CC(N(C)C)C2)c1C` [Example 2232, (2S)-1-(5-chloro-2-((5-cyanopyridin-3-yl)methoxy)-4-((3′-(3-(3-(dimethylamino)azetidin-1-yl)propoxy)-2,2′-dimethylbiphenyl-3-yl)methoxy)benzyl)piperidine-2-carboxylic Acid] showed an IC50 (value given as range class) of 0.00021 to 0.01 µM.

`Cc1c(COc2cc(OCc3cncc(C#N)c3)c(CN3CCCC[C@H]3C(=O)O)cc2Cl)cccc1-c1cccc(OCCCN(C)CCO)c1C` [Example 2233, (2S)-1-(5-chloro-2-((5-cyanopyridin-3-yl)methoxy)-4-((3′-(3-((2-hydroxyethyl)(methyl)amino)propoxy)-2,2′-dimethylbiphenyl-3-yl)methoxy)benzyl)piperidine-2-carboxylic Acid] showed an IC50 (value given as range class) of 0.00021 to 0.01 µM.

Compound `Cc1c(COc2cc(OCc3cncc(C#N)c3)c(CN3CCCC[C@H]3C(=O)O)cc2Cl)cccc1-c1cccc(OCCCNCC(C)(C)CO)c1C` [Example 2234, (2S)-1-(5-chloro-2-((5-cyanopyridin-3-yl)methoxy)-4-((3′-(3-(3-hydroxy-2,2-dimethylpropylamino)propoxy)-2,2′-dimethylbiphenyl-3-yl)methoxy)benzyl)piperidine-2-carboxylic Acid] has an IC50 (value given as range class) of 0.00021 to 0.01 µM.

`Cc1c(COc2cc(OCc3cncc(C#N)c3)c(CN3CCCC[C@H]3C(=O)O)cc2Cl)cccc1-c1cccc(OCCCNCC(O)CO)c1C` (stereo partly drawn) [Example 2235, (2S)-1-(5-chloro-2-((5-cyanopyridin-3-yl)methoxy)-4-((3′-(3-(2,3-dihydroxypropylamino)propoxy)-2,2′-dimethylbiphenyl-3-yl)methoxy)benzyl)piperidine-2-carboxylic Acid] was tested, and the IC50 (value given as range class) was 0.00021 to 0.01 µM.

With `Cc1c(COc2cc(OCc3cncc(C#N)c3)c(CN3CCCC[C@H]3C(=O)O)cc2Cl)cccc1-c1cccc(OCCCN(CCO)Cc2ccccc2)c1C` [Example 2236, (2S)-1-(4-((3′-(3-(benzyl(2-hydroxyethyl)amino)propoxy)-2,2′-dimethylbiphenyl-3-yl)methoxy)-5-chloro-2-((5-cyanopyridin-3-yl)methoxy)benzyl)piperidine-2-carboxylic Acid] the IC50 (value given as range class) was 0.00021 to 0.01 µM.

In the case of `Cc1c(COc2cc(OCc3cncc(C#N)c3)c(CN3CCCC[C@H]3C(=O)O)cc2Cl)cccc1-c1cccc(OCCCN[C@@H](CO)C(C)C)c1C` [Example 2237, (2S)-1-(5-chloro-2-((5-cyanopyridin-3-yl)methoxy)-4-((3′-(3-((R)-1-hydroxy-3-methylbutan-2-ylamino)propoxy)-2,2′-dimethylbiphenyl-3-yl)methoxy)benzyl)piperidine-2-carboxylic Acid], the IC50 (value given as range class) is reported as 0.00021 to 0.01 µM.

In the case of `Cc1c(COc2cc(OCc3cncc(C#N)c3)c(CN3CCCC[C@H]3C(=O)O)cc2Cl)cccc1-c1cccc(OCCCN[C@H](CO)C(C)C)c1C` [Example 2238, (2S)-1-(5-chloro-2-((5-cyanopyridin-3-yl)methoxy)-4-((3′-(3-((S)-1-hydroxy-3-methylbutan-2-ylamino)propoxy)-2,2′-dimethylbiphenyl-3-yl)methoxy)benzyl)piperidine-2-carboxylic Acid], the IC50 (value given as range class) is reported as 0.00021 to 0.01 µM.

Work on `Cc1c(COc2cc(OCc3cncc(C#N)c3)c(CN[C@@](C)(CO)C(=O)O)cc2Cl)cccc1-c1cccc(OCCCN2CCC[C@@H](C(=O)O)C2)c1C` [Example 2239, (3R)-1-(3-(3′-((4-(((S)-2-carboxy-1-hydroxypropan-2-ylamino)methyl)-2-chloro-5-((5-cyanopyridin-3-yl)methoxy)phenoxy)methyl)-2,2′-dimethylbiphenyl-3-yloxy)propyl)piperidine-3-carboxylic Acid] yielded an IC50 (value given as range class) of 0.00021 to 0.01 µM.

Work on `Cc1c(COc2cc(OCc3cncc(C#N)c3)c(CN3CCCC[C@H]3C(=O)O)cc2Cl)cccc1-c1cccc(OCCCN2C[C@@H](O)C[C@H]2C(=O)O)c1C` [Example 2240, (2S)-1-(4-((3′-(3-((2S,4S)-2-carboxy-4-hydroxypyrrolidin-1-yl)propoxy)-2,2′-dimethylbiphenyl-3-yl)methoxy)-5-chloro-2-((5-cyanopyridin-3-yl)methoxy)benzyl)piperidine-2-carboxylic Acid] yielded an IC50 (value given as range class) of 0.00021 to 0.01 µM.

With `Cc1c(COc2cc(OCc3cncc(C#N)c3)c(CN3CCCC[C@H]3C(=O)O)cc2Cl)cccc1-c1cccc(OCCCN2C[C@H](O)C[C@H]2C(=O)O)c1C` [Example 2241, (2S)-1-(4-((3′-(3-((2S,4R)-2-carboxy-4-hydroxypyrrolidin-1-yl)propoxy)-2,2′-dimethylbiphenyl-3-yl)methoxy)-5-chloro-2-((5-cyanopyridin-3-yl)methoxy)benzyl)piperidine-2-carboxylic Acid] the IC50 (value given as range class) was 0.00021 to 0.01 µM.

Compound `Cc1c(COc2cc(OCc3cncc(C#N)c3)c(CN3CCCC[C@H]3C(=O)O)cc2Cl)cccc1-c1cccc(OCCCNC[C@H](O)C(=O)O)c1C` [Example 2242, (2S)-1-(4-((3′-(3-((S)-2-carboxy-2-hydroxyethylamino)propoxy)-2,2′-dimethylbiphenyl-3-yl)methoxy)-5-chloro-2-((5-cyanopyridin-3-yl)methoxy)benzyl)piperidine-2-carboxylic Acid] has an IC50 (value given as range class) of 0.00021 to 0.01 µM.
